pKd: −log10 of the molar value.
How the values were obtained:
[1] = tested on: RARbeta; test: Transactivation assay (luciferase reporter, HeLa stable transfectants), RARbeta; assay type: cell-based, human; conditions: RARbeta Kdapp to RARalpha or RARgamma Kdapp
Source text: (§1) The compounds according to the invention have activating properties on RARbeta-type receptors. This RARbeta receptor-activating activity can in particular be measured in a transactivation assay by means of the dissocation constant Kdapp (apparent), the AC50 (concentration giving 50% of the activity of the reference molecule) and also by means of the % activation.
(§2) The activation of receptors with an agonist (activator) in HeLa cells leads to the expression of a reporter gene, luciferase, which, in the presence of a substrate, generates light. The activation of the receptors can thus be measured by quantifying the luminescence produced after incubating the cells in the presence of a reference antagonist. Activating products will displace the antagonist from its site, thus allowing activation of the receptor. The activity is measured by quantifying the increase in light produced. This measurement makes it possible to determine the activating activity of the compound according to the invention.
(§3) In this study, a constant is determined which represents the affinity of the molecule for the receptor. Since this value can fluctuate depending on the basal activity and the expression of the receptor, it is referred to as the Kd apparent (Kdapp).
(§4) To determine this constant, “crossed curves” of the test product against a reference antagonist, otherwise referred to as reference ligand, 4-(5,5-dimethyl-8-p-tolyl-5,6-dihydronaphthalen-2-ylethynyl)benzoic acid, are realized in 96-well plates. The test product is used at 10 concentrations and the reference antagonist at 7 concentrations. In each, the cells are in contact with a concentration of the test product and with a concentration of the reference antagonist, 4-(5,5-dimethyl-8-p-tolyl-5,6-dihydronaphthalen-2-ylethynyl)benzoic acid. […]
(§5) These crossed curves make it possible to determine the AC50 values (concentration at which 50% activation is observed) for the reference ligand at various concentrations of test product. These AC50 values are used to calculate the Schild regression by plotting a straight line corresponding to the Schild equation (“quantitation in receptor pharmacology” Terry P. Kenakin, Receptors and Channels, 2001, 7, 371-385).
(§6) In the case of an agonist, an AC50 value (concentration giving 50% activity) is calculated by plotting the curve of the product at the concentration of the reference ligand that gives 80% activation. The % activation which corresponds to the maximum level of activity obtained is also measured. […]
(§7) The culture medium is removed by turning the plates over, and 100 μl of a 1:1 PBS/luciferin mixture are added to each well. After 5 minutes, the plates are read using a luminescence reader.

[2] = biological target: T1, RARbeta (Homo sapiens, UniProt P10826); test: as above; assay type: cell-based
T1 construct: RARbeta Kdapp; RARbeta AC50; other: maximum level of activity obtained, relative to 100% control total agonist
T1 sequence (P10826 183-417 limits assumed): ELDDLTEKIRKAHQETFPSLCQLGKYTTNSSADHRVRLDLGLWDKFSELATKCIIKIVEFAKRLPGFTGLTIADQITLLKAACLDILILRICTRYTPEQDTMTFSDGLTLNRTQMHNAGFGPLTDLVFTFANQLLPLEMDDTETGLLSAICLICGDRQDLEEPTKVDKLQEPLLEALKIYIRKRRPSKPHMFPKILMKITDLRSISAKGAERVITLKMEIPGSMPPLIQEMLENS
Source text: as §1, §2, §3, §4, §5, §6, §7

[3] = biological target: T2, RARalpha (Homo sapiens, UniProt P10276); test: Transactivation assay (luciferase reporter, HeLa stable transfectants), RARalpha; assay type: cell-based
T2 sequence (P10276 183-417 limits assumed): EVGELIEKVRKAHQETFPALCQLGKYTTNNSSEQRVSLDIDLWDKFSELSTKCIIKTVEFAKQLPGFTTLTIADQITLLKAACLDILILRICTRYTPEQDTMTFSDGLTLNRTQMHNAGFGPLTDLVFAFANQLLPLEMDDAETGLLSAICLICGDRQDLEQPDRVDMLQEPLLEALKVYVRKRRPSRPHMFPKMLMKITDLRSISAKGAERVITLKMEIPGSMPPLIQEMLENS
Source text: [The procedure below names another target; the source lists this target under the same test.] as §1, §2
(§8) In this study, a constant is determined which represents the affinity of the molecule for the receptor. […]
as §5, §6, §7

[4] = biological target: T3, RARgamma (Homo sapiens, UniProt P13631); test: Transactivation assay (luciferase reporter, HeLa stable transfectants), RARgamma; assay type: cell-based
T3 sequence (P13631 185-419 limits assumed): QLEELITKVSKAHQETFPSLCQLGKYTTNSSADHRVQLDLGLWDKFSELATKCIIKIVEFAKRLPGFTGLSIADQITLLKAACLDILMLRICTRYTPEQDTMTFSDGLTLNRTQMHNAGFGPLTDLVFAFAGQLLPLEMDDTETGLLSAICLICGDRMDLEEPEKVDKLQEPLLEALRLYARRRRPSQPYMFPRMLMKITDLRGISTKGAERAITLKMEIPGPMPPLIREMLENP
Source text: [The procedure below names another target; the source lists this target under the same test.] as §1, §2, §8, §5, §6, §7

[5] = concentration giving 50% activity, at the reference ligand concentration giving 80% activation, HeLa cells
[6] = maximum level of activity obtained, relative to 100% control total agonist

- pKd ([2]; apparent Kd from Schild regression, crossed curves against reference antagonist, HeLa cells, read-out: RARbeta Kdapp): 7.22
- AC50 [2, 5]: 0.012 µM
- RARbeta % activation [2, 6]: 100%
- pKd ([3]; apparent Kd from Schild regression, crossed curves against reference antagonist, HeLa cells, read-out: RARalpha Kdapp): 5.10
- AC50 [3, 5]: 1.8 µM
- RARalpha % activation [3, 6]: 20%
- pKd ([4]; apparent Kd from Schild regression, crossed curves against reference antagonist, HeLa cells, read-out: RARgamma Kdapp): 5.40
- AC50 [4, 5]: 2 µM
- RARgamma % activation [4, 6]: 40%
Structure (SMILES): CC1(C)OCC(COc2ccc(-c3ccc4cc(C(=O)O)ccc4c3)cc2C23CC4CC(CC(C4)C2)C3)O1 (stereo not shown) [Ex. 1, 6-[3-adamantan-1-yl-4-(2,2-dimethyl[1,3]dioxolan-4-ylmethoxy)phenyl]naphthalene-2-carboxylic acid]
- ratio of the Kdapp values R [1]: 0.015

Source: US7517907B2, “Pharmaceutical/cosmetic compositions comprising a novel RARbeta receptor-activating ligand” (Galderma Research & Development, priority 2003, dated 2009)
